Laboratory results: ChEMBL document CHEMBL6121067, “Mitophagy in Neurodegenerative Diseases: Mechanisms of Action and the Advances of Drug Discovery” (J Med Chem, 2025)
In brackets after ≈: the same amount, converted by molar mass.

Columns and labels:
[1] = target: T1, Ubiquitin carboxyl-terminal hydrolase 30 (Homo sapiens, UniProt Q70CQ3); test: Inhibition of USP30 (unknown origin)
T1 sequence (Q70CQ3 whole entry): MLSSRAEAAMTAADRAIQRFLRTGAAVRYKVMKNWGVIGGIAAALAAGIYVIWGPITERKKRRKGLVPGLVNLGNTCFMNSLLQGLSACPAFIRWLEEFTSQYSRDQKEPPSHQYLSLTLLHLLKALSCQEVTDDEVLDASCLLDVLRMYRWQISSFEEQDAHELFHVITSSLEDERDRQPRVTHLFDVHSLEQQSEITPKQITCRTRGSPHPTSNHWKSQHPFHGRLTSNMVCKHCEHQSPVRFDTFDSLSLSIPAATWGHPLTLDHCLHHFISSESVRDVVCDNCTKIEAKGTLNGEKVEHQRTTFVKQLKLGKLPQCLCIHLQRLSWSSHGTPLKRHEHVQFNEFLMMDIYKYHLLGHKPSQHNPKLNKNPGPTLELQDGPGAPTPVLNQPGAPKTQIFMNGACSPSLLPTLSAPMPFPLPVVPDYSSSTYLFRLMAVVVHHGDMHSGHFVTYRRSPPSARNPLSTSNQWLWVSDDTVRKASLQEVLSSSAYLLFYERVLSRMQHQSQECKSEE

[2] = target: Serine/threonine-protein kinase PINK1, mitochondrial (Homo sapiens, UniProt Q9BXM7); test: Activation of full length recombinant PINK1 (unknown origin) extracted from Escherichia coli BL21 (DE3) by UV absorbance based analysis
Sequence of Serine/threonine-protein kinase PINK1, mitochondrial (Q9BXM7 whole entry): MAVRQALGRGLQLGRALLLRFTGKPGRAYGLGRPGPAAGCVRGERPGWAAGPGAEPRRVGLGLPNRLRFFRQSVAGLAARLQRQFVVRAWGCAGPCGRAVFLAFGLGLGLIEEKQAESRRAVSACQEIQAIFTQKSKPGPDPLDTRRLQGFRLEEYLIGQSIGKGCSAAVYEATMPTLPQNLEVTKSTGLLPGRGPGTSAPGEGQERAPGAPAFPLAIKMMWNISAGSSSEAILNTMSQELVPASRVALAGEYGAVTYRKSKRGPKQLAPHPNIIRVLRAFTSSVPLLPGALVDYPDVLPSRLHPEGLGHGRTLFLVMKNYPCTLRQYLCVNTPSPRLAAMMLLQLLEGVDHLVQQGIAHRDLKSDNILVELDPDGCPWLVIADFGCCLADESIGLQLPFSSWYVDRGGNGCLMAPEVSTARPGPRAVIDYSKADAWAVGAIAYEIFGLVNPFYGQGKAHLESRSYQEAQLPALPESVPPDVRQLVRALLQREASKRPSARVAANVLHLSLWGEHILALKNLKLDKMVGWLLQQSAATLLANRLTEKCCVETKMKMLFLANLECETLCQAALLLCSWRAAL

[3] = Solubility of compound at pH 6.8 incubated for 4 hrs by HPLC or LC-MS/MS analysis; assay type: physicochemical; conditions: buffer

SMILES | IC50 [1] [nM] | EC50 [2] [nM] | solubility at 4 h [3] [µg/mL]
N#CN1CC[C@H](CNC(=O)c2cc(-c3cccc(Cl)c3)no2)C1 | 15 |  | 
CC(C)[C@H]1Cn2ncc(-c3ccc(C(=O)N4CCCc5ccccc54)cc3)c2CN1C(=O)Cc1ccccc1 |  | 2900 | 3.6 (≈ 6.94 µM)
N#CN1CC[C@@H](NC(=O)c2cc(-c3ccccc3Oc3ccccc3)n[nH]2)C1 | 1.5 |  | 
CO[C@@H](C(=O)N1Cc2c(-c3ccc(C(=O)N4CCCc5ccccc54)cc3)cnn2C[C@@H]1C(C)C)c1cnn(C)c1 |  | 150 | 65 (≈ 118 µM)
COc1cc(-c2nc(-c3ccccc3)c(-c3ccccc3)n2C2CC2)ccc1OCC(=O)O | 8430 |  | 

Further lines, results first:

IC50 [1] [nM] | EC50 [2] [nM] | solubility at 4 h [3] [µg/mL] | SMILES
15 |  |  | COc1cc(C(=O)N[C@@H]2CCN(C#N)C2)ccc1-c1cnn(C)c1
15 |  |  | N#CN1CC[C@@H](NC(=O)N2CC(c3ccn(-c4ccccc4)n3)C2)C1
 | 1500 | 1.5 (≈ 2.97 µM) | C[C@@H](C(=O)N1Cc2c(-c3ccc(C(=O)N4CCCc5ccccc54)cc3)cnn2C[C@@H]1C)c1ccccc1
5120 |  |  | CCn1c(-c2ccc(OCC(=O)O)c(OC)c2)nc(-c2ccccc2)c1-c1ccccc1
 | 40 | 3.8 (≈ 6.93 µM) | CO[C@@H](C(=O)N1Cc2c(-c3ccc(C(=O)N4CCCc5ccccc54)cc3)cnn2C[C@@H]1C(C)C)c1ccccc1
 | 14500 |  | CC(=O)N1Cc2c(-c3ccc(C(=O)N4CCCc5ccccc54)cc3)cnn2C[C@@H]1C
